Earlier results as cited in patent US6514992B1, “Caspases and apoptosis” (SmithKline Beecham Corporation, priority 1998, dated 2003).

System: osteoclasts of murine bone marrow cultures
Details: murine bone marrow cultures grown for 6 days in vitro

## TGF-β1: cytokine cited as inducing apoptosis in osteoclasts of murine bone marrow cultures
  apoptosis induced in osteoclasts: approx. 30%
